Source: paper PMC10246557, “Kinetic and inhibition studies on human Jumonji-C (JmjC) domain-containing protein 5” (RSC Chemical Biology, 2023)
Like-named read-outs stand apart in the source and are kept apart here.

How the values were obtained:
human FIH = conditions: FIH 0.15 μM, cited from earlier work; for FIH (%): substrate hydroxylation with the compound as cosubstrate: absence of 2OG, 2OG derivative 330 μM, Fe(II) 50 μM, HIF-1α788–822 5.0 μM; for K m / k cat: HIF-1α788–822 substrate
human AspH = conditions: absence of 2OG; AspH 0.1 μM, 2OG derivative 330 μM, Fe(II) 50 μM, hFX-CP101–119 2.0 μM; cited from earlier work
human JMJD5 = biological target: T1, human JMJD5 (Homo sapiens, UniProt Q8N371); assay: SPE-MS JMJD5 turnover and kinetic assay (RPS6_128–148 hydroxylation); format: biochemical; conditions: for JMJD5 (%): RPS6_128–148 hydroxylation with the compound as cosubstrate: absence of 2OG, JMJD5 0.15 μM, 2OG derivative 400 μM, Fe(II) 20 μM, RPS6_128–148 2.0 μM
T1 construct: made in house; host or cells: Escherichia coli BL21(DE3)
T1 sequence (Q8N371 whole entry): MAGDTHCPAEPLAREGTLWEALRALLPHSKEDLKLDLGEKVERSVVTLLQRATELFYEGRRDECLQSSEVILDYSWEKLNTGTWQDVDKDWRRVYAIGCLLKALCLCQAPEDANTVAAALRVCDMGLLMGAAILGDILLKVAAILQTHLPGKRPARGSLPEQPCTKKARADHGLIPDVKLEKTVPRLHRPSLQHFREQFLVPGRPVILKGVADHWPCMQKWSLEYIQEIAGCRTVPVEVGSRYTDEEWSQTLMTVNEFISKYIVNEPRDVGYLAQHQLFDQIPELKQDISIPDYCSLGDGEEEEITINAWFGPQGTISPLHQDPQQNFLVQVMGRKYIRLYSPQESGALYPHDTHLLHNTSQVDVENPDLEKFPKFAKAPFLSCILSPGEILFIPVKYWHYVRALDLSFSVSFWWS
Procedure: JMJD5 turnover assays for time course and kinetic experiments were performed in 96-well polypropylene assay plates (Greiner) with either […] total reaction volume using the concentrations given in the manuscript or ESI, ^† and JMJD5-catalysed substrate hydroxylation was directly monitored using SPE-MS. […] Assay samples were aspirated under vacuum for 0.6 s and loaded onto a C4 solid phase extraction (SPE) cartridge. After loading, the C4 SPE cartridge was washed with 0.1%v/v aqueous formic acid to remove non-volatile buffer salts (5.5 s, 1.5 mL min^−1). The peptide was eluted from the SPE cartridge with 0.1%v/v aqueous formic acid in 80/20v/v acetonitrile/water into the mass spectrometer (5.5 s, 1.5 mL min^−1) and the SPE cartridge re-equilibrated with 0.1%v/v aqueous formic acid (0.5 s, 1.5 mL min^−1). The mass spectrometer was operated using the MassHunter Workstation B.08.00 software (Agilent), the mass spectrometer parameters were: capillary voltage (4000 V), nozzle voltage (1000 V), fragmentor voltage (365 V), gas temperature (280 °C), gas flow (13 L min^−1), sheath gas temperature (350 °C), sheath gas flow (12 L min^−1). […] Data were exported into Microsoft Excel and used to calculate the % conversion of the hydroxylation reaction using the equation: % conversion = 100 × (integral product peptide)/(integral substrate peptide + integral product peptide).
parameters (continues on the following two pages). Maximum velocities (vapp ) and Michaelis constants (Kapp)
of JMJD5 were determined in independent triplicates, monitoring the JMJD5-catalyzed hydroxylation of the
SPE-MS, as described (Experimental Section).
20 °C). Measurement times were normalized to the first sample injection analyzed after the addition of JMJD5 to
shown as the mean of three independent runs (n = 3; mean ± standard deviation, SD).
hexahydrate (20 μM, (NH4)2Fe(SO4)2·6H2O); and (b) hydroxylation rates used to determine kinetic parameters of
(1 picture or pasted object on this page, not shown here)
Maximum velocities (vapp ) and
Michaelis constants (Kapp) of JMJD5 were determined in independent triplicates for (1R)-3-
(carboxycarbonyl)cyclopentane-1-carboxylic acid (14), monitoring the JMJD5-catalyzed hydroxylation of the
as described (Experimental Section).
pH 7.5, 20 °C). Measurement times were normalized to the first sample injection analyzed after the addition of
(§1) Data are shown as the mean of three independent runs (n = 3; mean ± SD).
to determine kinetic parameters of JMJD5 for 14.

human KDM4E = biological target: T2, human KDM4E (Homo sapiens, UniProt B2RXH2); assay: KDM4E SPE-MS turnover and kinetic assay (H3 K9(me3) peptide demethylation); format: biochemical; conditions: for K app m / k app cat: 0.15 μM KDM4E, ARTAQTARK(me3)STGGIA 10 μM
T2 sequence (B2RXH2 1-506): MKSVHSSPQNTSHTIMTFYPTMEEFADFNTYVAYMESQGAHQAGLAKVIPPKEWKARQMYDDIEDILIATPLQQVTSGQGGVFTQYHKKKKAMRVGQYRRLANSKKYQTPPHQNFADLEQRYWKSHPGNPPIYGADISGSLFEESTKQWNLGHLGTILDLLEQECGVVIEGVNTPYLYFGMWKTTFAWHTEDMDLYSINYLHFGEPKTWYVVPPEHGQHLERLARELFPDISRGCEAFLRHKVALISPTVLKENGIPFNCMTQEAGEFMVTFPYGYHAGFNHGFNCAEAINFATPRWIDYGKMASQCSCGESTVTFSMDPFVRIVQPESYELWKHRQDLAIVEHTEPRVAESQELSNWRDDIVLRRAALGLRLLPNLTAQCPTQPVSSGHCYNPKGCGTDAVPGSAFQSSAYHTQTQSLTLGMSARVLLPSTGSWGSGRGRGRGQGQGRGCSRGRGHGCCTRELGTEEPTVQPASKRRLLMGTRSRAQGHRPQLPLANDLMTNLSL
Procedure: KDM4E turnover and inhibition assays were performed as reported using recombinant human KDM4E and a histone 3 K9(me3) derivative (i.e. […](me3)STGGIA)[41] as substrate.[95]
Supplementary Figure S3. Rates of KDM4E-catalyzed Nε-trimethyl lysine demethylations of a histone 3- […]
Maximum velocities (vapp ) and Michaelis […]
catalyzed Nε-trimethyl lysine demethylation of the histone 3 K9(me3)-derived peptide […]
(me3)STGGIA2 by SPE-MS as described;3 note that mono-, di-, and tri-demethylated product […]
buffer (50 mM MES, pH 7.0, 20 °C). Measurement times were normalized to the first sample injection analyzed […]
as §1
(a) Time course of the KDM4E-catalyzed Nε-trimethyl lysine demethylation reaction of the […]

[1] = absence of 2OG, KDM4E 0.15 μM, 2OG derivative 330 μM, Fe(II) 50 μM, ARTAQTARK(me3)STGGIA 10.0 μM

| Molecule | FIH (%): substrate hydroxylation with the compound as cosubstrate (human FIH) | AspH (%): substrate hydroxylation with the compound as cosubstrate (human AspH) | JMJD5 (%): RPS6_128–148 hydroxylation with the compound as cosubstrate (human JMJD5) | KDM4E (%): substrate demethylation with the compound as cosubstrate (human KDM4E; [1]) | further results |
| --- | --- | --- | --- | --- | --- |
| CC1(C)C(C(=O)O)C1C(=O)C(=O)O (mixture of isomers) [Entry 21] | < 1% | < 1% | < 1% | < 1% | – |
| CC(C)CC(CC(=O)C(=O)O)C(=O)O (racemic) [Entry 16] | < 1% | < 1% | < 1% | < 1% | – |
| CC(C)(C)CCC(CC(=O)C(=O)O)C(=O)O (racemic) [Entry 17] | < 1% | < 1% | < 1% | < 1% | – |
| O=C(O)C(=O)CC(Cc1ccccc1)C(=O)O (racemic) [Entry 19] | < 1% | < 1% | < 1% | < 1% | – |
| O=C(O)CCC(=O)C(=O)O [C00001] | ∼50% | – | ∼40% | – | KDM4E (%): substrate demethylation with the compound as cosubstrate (human KDM4E): ∼70% |
| CC(C)(CC(=O)C(=O)O)C(=O)O [C00002] | – | – | – | <1% | – |
| CC(CC(=O)O)C(=O)C(=O)O (stereo not drawn) [C00003] | ∼55% | >95% | ∼10% | ∼10% | – |
| CCC(CC(=O)C(=O)O)C(=O)O (stereo not drawn) [C00004] | ∼10% | <1% | ∼10% | <1% | – |
| CCC(CC(=O)O)C(=O)C(=O)O (stereo not drawn) [C00005] | ∼2% | <1% | <1% | <1% | – |
| CCCC(CC(=O)C(=O)O)C(=O)O (stereo not drawn) [C00006] | ∼5% | <1% | ∼10% | <1% | – |
| CCCC(CC(=O)O)C(=O)C(=O)O (stereo not drawn) [C00007] | <1% | <1% | <1% | <1% | – |
| O=C(O)C(=O)CC(CCCc1ccccc1)C(=O)O (stereo not drawn) [C00008] | <1% | <1% | <1% | <1% | – |
| O=C(O)CC(CCCc1ccccc1)C(=O)C(=O)O (stereo not drawn) [C00009] | <1% | <1% | <1% | ∼2% | – |
| O=C(O)C(=O)CC(Cc1ccccc1)C(=O)O (stereo not drawn) [C00010] | <1% | <1% | <1% | <1% | – |
| O=C(O)CC(Cc1ccc(OC(F)(F)F)cc1)C(=O)C(=O)O (stereo not drawn) [C00011] | <1% | <1% | <1% | <1% | – |
| O=C(O)C(=O)C1CC[C@@H](C(=O)O)C1 (stereo partly drawn) [C00012] | ∼2% | ∼15% | – | <1% | – |
| COc1ccc(CC(CC(=O)O)C(=O)C(=O)O)cc1 (stereo not drawn) [C00013] | <1% | <1% | ∼10% | ∼5% | – |
| O=C(O)CCC(=O)C(=O)O [C00019] | – | – | – | – | K app m (human JMJD5; 0.15 μM JMJD5, 50 mM MOPS pH 7.5, 20 °C, LAA present): 0.29 ± 0.04 µM; k app cat (human JMJD5; 0.15 μM JMJD5, 50 mM MOPS pH 7.5, 20 °C, LAA present, calculated from vmax): 0.0056 ± 0.0002 s⁻¹ |
| O=C(O)CCC(=O)C(=O)O [C00021] | – | – | – | – | K m (human FIH): 0.8 ± 0.1 µM; k cat (human FIH): 0.04 ± 0.01 s⁻¹ |
| O=C(O)C(=O)C1CC[C@@H](C(=O)O)C1 (stereo partly drawn) [C00022] | – | – | – | – | K m (human FIH): 14.8 ± 2.6 µM; k cat (human FIH): 0.01 ± 0.001 s⁻¹ |
| O=C(O)CCC(=O)C(=O)O [C00023] | – | – | – | – | K app m (human KDM4E): 4.2 ± 1.1 µM; k app cat (human KDM4E): 0.14 ± 0.01 s⁻¹ |
| O=C(O)C(=O)C1CC[C@@H](C(=O)O)C1 (stereo partly drawn) [C00024] | – | – | – | – | K app m (human KDM4E): No reaction; k app cat (human KDM4E): No reaction |
| O=C1O[C@H]([C@@H](O)CO)C(O)=C1O [LAA, L-ascorbic acid, reference compound] | – | – | – | – | cosubstrate/cofactor role for JMJD5 (human JMJD5): not a cosubstrate/cofactor |
| RCCD1_134–150: RCCD1 amino acids 134–150, LPLLPCARAYVSPRAPF, JMJD5 substrate peptide [reference compound] | – | – | – | – | JMJD5-catalyzed hydroxylation of the substrate peptide (human JMJD5; after 1 h incubation, 50 mM MOPS pH 7.5, 20 °C): < 10% |
